A word on the EC50: it is the concentration at which the effect is half-maximal.

EC50 data for one compound are collected here from US9545407B2, “Formulations of a bruton's tyrosine kinase inhibitor” (Pharmacyclics LLC, priority 2014, dated 2017).

Like-named read-outs stand apart in the source and are kept apart here.

The test system of this assay is OCI-Ly10. Nature of the assay: growth inhibition of OCI-Ly10 (ABC subtype DLBCL cells). The format is cell-based. The note with it: Homo sapiens. An excerpt: See U.S. Pat. No. 7,711,492 and Staudt et al., Nature, Vol. 463, Jan. 7, 2010, pp. 88-92, the contents of which are incorporated by reference in their entirety.

For the compound `C=CC(=O)N1CCC[C@@H](n2nc(-c3ccc(Oc4ccccc4)cc3)c3c(N)ncnc32)C1` [Compound 1, 1-((R)-3-(4-amino-3-(4-phenoxyphenyl)-1H-pyrazolo[3,4-d]pyrimidin-1-yl)piperidin-1-yl)prop-2-en-1-one], the EC50 runs as follows: (continuous exposure, read-out: EC50 continuous exposure) 0.01 µM; (read-out: EC50 1 hour pulse, 1 hour pulse) 0.05 µM.
